# In PMC6328587 (Nature Communications, 2019):
# Substitutions are numbered along the chain they refer to. “Also recorded” adds a separate entry of the source.
# Tests used:
# p38δ = target: T1, p38δ (Homo sapiens, UniProt O15264); experiment: CETSA in MDA-MB-231 cell lysate, p38δ; format: binding; conditions: 100 µM PROTAC, 51-55 °C, vs DMSO
# T1 construct: endogenous in cells; host or cells: MDA-MB-231
# T1 sequence (O15264 1-365): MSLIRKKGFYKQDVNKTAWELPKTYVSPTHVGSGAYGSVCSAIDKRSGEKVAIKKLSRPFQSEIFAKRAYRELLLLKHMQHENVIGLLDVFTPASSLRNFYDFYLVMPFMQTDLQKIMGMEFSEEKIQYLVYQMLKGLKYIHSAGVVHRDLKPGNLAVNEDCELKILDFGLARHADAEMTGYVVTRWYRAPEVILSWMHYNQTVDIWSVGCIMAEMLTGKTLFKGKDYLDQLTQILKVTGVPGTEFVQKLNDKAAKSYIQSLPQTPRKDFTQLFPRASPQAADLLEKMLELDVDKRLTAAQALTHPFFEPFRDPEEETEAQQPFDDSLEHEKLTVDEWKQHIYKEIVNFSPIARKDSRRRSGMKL
# Description: CETSA protocol was adapted from[60]. In all, 3 × 10^7 MDA-MB-231 cells (1 × 10^7 cells per condition) were collected and resuspended in ice-cold 1X PBS supplemented with 1X protease inhibitor cocktail (Roche) and lysed by three cycles of liquid nitrogen snap freeze, followed by 50% thaw in a room temperature water bath and an additional 50% thaw at 4 °C. After each freeze–thaw cycle, lysate was vortexed briefly to ensure homogenous thawing. Lysate was then cleared for 20 min by centrifugation (14,000 × g at 4 °C) and the soluble fraction was divided into three equal aliquots. The aliquots were treated with vehicle (2.5% DMSO), 100 µM SJFα, or 100 µM SJFδ and incubated at room temperature for 30 min with gentle rotation. Each aliquot was then divided (50 µL) into eight PCR tubes and individually heated at the indicated temperature for 3 min followed by cooling at room temperature for 3 min. After cooling, samples were spun down for 20 min (14,000 × g at 4 °C) and the supernatant (soluble fraction) was analyzed by SDS-PAGE and immunoblotted for p38δ and alpha-tubulin (negative control).
# [1] = target: T2, VHL:PROTAC:p38α ternary complex (Homo sapiens, UniProt P40337+Q16539); experiment: AlphaLISA ternary complex assay; format: binding; conditions: His-p38α and GST-VBC 150 nM, increasing PROTAC
# T2 construct: The plasmid contains an N-terminal His6 tag and encodes a region spanning amino acids 2–360 of the human p38α kinase; made in house; host or cells: E. coli BL21-CodonPlus(DE3)-RIPL (p38α); E. coli BL21(DE3) (GST-VBC)
# Description: Assays were performed at room temperature and plates sealed with transparent film between addition of reagents to prevent well contamination. All reagents were diluted in 50 mM HEPES pH 7.5, 50 mM NaCl, 69 µM Brij-35, and 0.1 mg mL^−1 BSA. Recombinant GST-VBC was mixed with His6-p38α and PROTAC (diluted one-in-three from 6× stock) to a final volume of 15 μL per well in a OptiPlate-384 well microplate (PerkinElmer) and incubated for 30 min. VBC and p38α were kept at a constant final concentration of 150 nM. In all, 7.5 μL of Anti-6xHis AlphaLISA Acceptor beads (PerkinElmer) were added to each well and plates were incubated for 15 min in the dark. In total, 7.5 μL of Alpha Glutathione Donor beads (PerkinElmer) were added to each well and plates were incubated for 45 min in the dark. Plates were read on a Synergy 2 microplate reader using the Gen5 imager software (BioTek Instruments) with an excitation wavelength of 680 nm and emission wavelength of 615 nm. Intensity values were plotted in Graphpad Prism with PROTAC concentration values represented on a log10 scale.
# wild-type p38δ = target: T3, wild-type p38δ (Homo sapiens, UniProt O15264); experiment: Degradation of transfected wild-type p38δ in HeLa cells; format: cell-based; conditions: 24 h
# T3 construct: expressed in transfected cells; host or cells: HeLa
# T3 sequence (O15264 1-365): T1 sequence (O15264 1-365)
# Description: (§1) Mutant p38δ was generated by QuikChange Lightning site-directed mutagenesis kit (Agilent). Transfections were carried out using Lipofectamine 2000 reagent (Invitrogen) in HeLa cells seeded at 3 × 10^5 cells per six well. One microgram of FLAG-containing pcDNA5-p38delta-WT or pcDNA5-p38delta-K220ET221E was used per transfection. Opti-MEM media were changed after 6 h to DMEM (1 × ), at which point the indicated compounds were added for 24 h before harvesting.
# [2] = target: T4, mutant (K220E/T221E) p38δ (Homo sapiens, UniProt O15264, K220E/T221E); experiment: Degradation of transfected mutant p38δ in HeLa cells; format: cell-based; conditions: 24 h
# T4 construct: expressed in transfected cells; host or cells: HeLa cells, Lipofectamine 2000, pcDNA5-p38delta-K220ET221E
# T4 sequence (O15264 1-365 K220E/T221E): T1 sequence (O15264 1-365) with K220E, T221E
# Description: as §1
# T2 sequence (Q16539 2-360 limits assumed): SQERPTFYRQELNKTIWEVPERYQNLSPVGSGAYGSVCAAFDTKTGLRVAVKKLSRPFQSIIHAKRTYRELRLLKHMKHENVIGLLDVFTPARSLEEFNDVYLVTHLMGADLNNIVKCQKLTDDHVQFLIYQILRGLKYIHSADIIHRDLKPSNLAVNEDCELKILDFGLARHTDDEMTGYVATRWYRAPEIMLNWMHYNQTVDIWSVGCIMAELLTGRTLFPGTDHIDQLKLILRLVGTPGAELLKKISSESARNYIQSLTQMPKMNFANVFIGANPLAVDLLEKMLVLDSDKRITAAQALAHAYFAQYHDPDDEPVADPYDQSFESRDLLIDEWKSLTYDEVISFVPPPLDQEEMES
# T2 sequence (P40337 whole entry, the tested form may be a part): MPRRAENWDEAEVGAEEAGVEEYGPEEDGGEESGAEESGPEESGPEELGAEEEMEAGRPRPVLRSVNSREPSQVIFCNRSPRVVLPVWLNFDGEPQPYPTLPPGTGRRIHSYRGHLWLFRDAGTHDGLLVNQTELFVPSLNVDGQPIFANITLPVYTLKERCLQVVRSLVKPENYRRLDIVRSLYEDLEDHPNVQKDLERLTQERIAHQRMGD
# T2 sequence (Q15370 whole entry partner, the tested form may be a part): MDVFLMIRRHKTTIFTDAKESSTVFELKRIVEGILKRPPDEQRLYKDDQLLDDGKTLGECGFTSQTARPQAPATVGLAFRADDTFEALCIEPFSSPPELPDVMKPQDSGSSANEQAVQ
# T2 sequence (Q15369 whole entry partner, the tested form may be a part): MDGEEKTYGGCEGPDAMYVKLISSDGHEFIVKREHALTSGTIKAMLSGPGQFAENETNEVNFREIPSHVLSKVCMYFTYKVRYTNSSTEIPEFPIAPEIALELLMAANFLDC
degradation of wild-type p38δ (wild-type p38δ),SMILES,thermal shift in the p38δ melting profile (p38δ),p38α:PROTAC:VHL ternary complex formation (AlphaLISA) [1],degradation of double-mutant (K220E/T221E) p38δ [2]
not wild-type p38δ,COc1cc2c(Oc3ccc(NC(=O)C4(C(=O)Nc5ccc(F)cc5)CC4)cc3F)ccnc2cc1OCCCCOCCCCOCC(=O)N[C@H](C(=O)N1C[C@H](O)C[C@H]1C(=O)NCc1ccc(-c2scnc2C)cc1)C(C)(C)C [SJFα],"small, but statistically significant",facilitates a VHL:PROTAC:p38α ternary complex,able to degrade; also recorded: potently degrades
able to eliminate wild-type p38δ,COc1cc2c(Oc3ccc(NC(=O)C4(C(=O)Nc5ccc(F)cc5)CC4)cc3F)ccnc2cc1OCCOCCOCCOc1cc(-c2scnc2C)ccc1CNC(=O)[C@@H]1C[C@@H](O)CN1C(=O)[C@H](C(C)C)N1Cc2ccccc2C1=O [SJFδ],more pronounced at each melting temperature,no such ternary species is detectable,able to degrade
